Test results taken from patent US20260293901A1 (priority 2023, published 2026).

Columns and labels:
Plasmopara viticola = format: in vivo; conditions: 200 ppm; grape vine leaf disks, preventative; inoculated 1 day after application; assessed 6-8 days after application
Phytophthora infestans = format: in vivo; conditions: 200 ppm; tomato leaf disks, preventative; inoculated 1 day after application; assessed 5-7 days after application
Pythium ultimum = test: Pythium ultimum/Liquid Culture (Seedling Damping Off); format: cell-based; conditions: Globisporangium ultimum, read-out: control of Pythium ultimum (inhibition of growth determined photometrically)

SMILES | control of Plasmopara viticola (percent disease control compared to untreated) (Plasmopara viticola) | control of Phytophthora infestans (percent disease control compared to untreated) (Phytophthora infestans) | inhibition at 20 ppm (Pythium ultimum)
COC(=O)Nc1ccc(-c2cnc3c(C)cc(C(=O)N(C)c4ccc(F)c(C)c4)nn23)cn1 [Compound 1, methyl N-[5-[6-[(4-fluoro-3-methyl-phenyl)-methyl-carbamoyl]-8-methyl-imidazo[1,2-b]pyridazin-3-yl]-2-pyridyl]carbamate] | at least 80% |  | 
COC(=O)Nc1ccc(-c2cnc3c(C)cc(C(=O)N4CCCc5cc(F)ccc54)nn23)cn1 [Compound 2, methyl N-[5-[6-(6-fluoro-3,4-dihydro-2H-quinoline-1-carbonyl)-8-methyl-imidazo[1,2-b]pyridazin-3-yl]-2-pyridyl]carbamate] |  | at least 80% | 
COC(=O)Nc1ccc(-c2cnc3c(C)cc(C(=O)N(C)c4ccc(F)cc4)nn23)cn1 [Compound 3, methyl N-[5-[6-[(4-fluorophenyl)-methyl-carbamoyl]-8-methyl-imidazo[1,2-b]pyridazin-3-yl]-2-pyridyl]carbamate] | at least 80% | at least 80% | 
COC(=O)Nc1ccc(-c2cnc3c(C)cc(C(=O)N(C)c4ccc(F)c(OC)c4)nn23)cn1 [Compound 4, methyl N-[5-[6-[(4-fluoro-3-methoxy-phenyl)-methyl-carbamoyl]-8-methyl-imidazo[1,2-b]pyridazin-3-yl]-2-pyridyl]carbamate] | at least 80% | at least 80% | ≥ 80%
COC(=O)Nc1ccc(-c2cnc3ccc(C(=O)N(C)c4ccc(F)c(OC)c4)nn23)cn1 [Compound 8, methyl N-[5-[6-[(4-fluoro-3-methoxy-phenyl)-methyl-carbamoyl]imidazo[1,2-b]pyridazin-3-yl]-2-pyridyl]carbamate] | at least 80% | at least 80% | ≥ 80%
